# Values quoted from earlier work in US20230405112A1, “PHARMACEUTICAL COMPOSITION, PHARMACEUTICAL COMBINED FORMULATION, AND COMBINED FORMULATION KIT FOR PREVENTION OR TREATMENT OF CHRONIC HEPATITIS B, EACH COMPRISING, AS ACTIVE INGREDIENT, ORAL ANTIVIRAL AGENT AND THERAPEUTIC VACCINE INCLUDING LIPOPEPTIDE AND POLY(I:C) ADJUVANT” (CHA VACCINE RESEARCH INSTITUTE CO., LTD, priority 2020, published 2023).
# Values joined by “and” are separate entries in the source; they are usually repeats but may differ in a detail not shown here. Equal values may be shown once. Where a name gives a salt, the structure may show the parent alone. Read-outs that look alike come from different tables or passages of the source.
# Tests used:
# hepatitis B virus [1] = conditions: after 1 year of treatment
# hepatitis B virus [2] = tested on: hepatitis B virus
# hepatitis B virus [3] = conditions: Chinese patients; 7 years
# hepatitis B virus [4] = tested on: hepatitis B virus; remark: listed apart in the source
# hepatitis B virus [5] = tested on: hepatitis B virus; remark: listed apart in the source
# [6] = tested on: virus-specific cytotoxic T lymphocytes (CTLs); conditions: combined with an influenza virus T cell epitope; administered to mice
# [7] = HBeAg(+), phase 3, 2 year results
# [8] = baseline HBeAg(+), 1 year (week 48)
# [9] = baseline HBeAg(+), 2 years (week 96)
# [10] = baseline HBeAg(−), 1 year (week 48)
# [11] = baseline HBeAg(−), 2 years (week 96)
# [12] = HBeAg(+), 3-year follow-up, (non-Asian)
# [13] = HBeAg(+), phase 3, 1 year, (non-Asian)
# [14] = all patients, 10-year follow-up
compound,measurement,setting,value
"CC(C)(C)C(=O)OCOP(=O)(COCCn1cnc2c(N)ncnc21)OCOC(=O)C(C)(C)C [ADV, Adefovirdipivoxil]",ALT nomalisatioin,hepatitis B virus [1]; HBeAg(+) patients,48~54%
same,Anti-Hbe-seroconversion,hepatitis B virus [1]; HBeAg(+) patients,12~18%
same,HBV DNA <60~80 IU/ml,hepatitis B virus [1]; HBeAg(+) patients,13~21%
same,HBs Ag loss,hepatitis B virus [1]; HBeAg(+) patients,0%
same,ALT nomalisatioin,hepatitis B virus [1]; HBeAg(−) patients,72~77%
same,HBV DNA <60~80 IU/ml,hepatitis B virus [1]; HBeAg(−) patients,51~63%
same,HBs Ag loss,hepatitis B virus [1]; HBeAg(−) patients,0%
C=C1[C@H](CO)[C@@H](O)C[C@@H]1n1cnc2c(=O)[nH]c(N)nc21 [Entecavir],ALT nomalisatioin,hepatitis B virus [1]; HBeAg(+) patients,68%
same,Anti-Hbe-seroconversion,hepatitis B virus [1]; HBeAg(+) patients,21%
same,HBV DNA <60~80 IU/ml,hepatitis B virus [1]; HBeAg(+) patients,67%
same,HBs Ag loss,hepatitis B virus [1]; HBeAg(+) patients,2%
same,ALT nomalisatioin,hepatitis B virus [1]; HBeAg(−) patients,78%
same,HBV DNA <60~80 IU/ml,hepatitis B virus [1]; HBeAg(−) patients,90%
same,HBs Ag loss,hepatitis B virus [1]; HBeAg(−) patients,0%
same,HBeAg seroconversion (%),hepatitis B virus [2]; 5 year results,23%
same,HBeAg seroconversion n/N,hepatitis B virus [2]; 5 year results,33/141
same,HBsAg loss (%),"hepatitis B virus [2]; HBeAg(+), 5 year results",1.4%
same,HBsAg loss n/N,"hepatitis B virus [2]; HBeAg(+), 5 year results",2/145
same,HBsAg loss (%),hepatitis B virus [2]; [7],5%
same,HBsAg loss n/N,hepatitis B virus [2]; [7],18/354
same,HBsAg seroconversion (%),hepatitis B virus [2]; [7],2%
same,HBsAg seroconversion n/N,hepatitis B virus [2]; [7],6/354
same,HBeAg seroconversion (%),"hepatitis B virus [2]; phase 3, 2 year results",31%
same,HBeAg seroconversion n/N,"hepatitis B virus [2]; phase 3, 2 year results",110/354
same,HBeAg seroconversion rate (Kaplan-meier analysis),hepatitis B virus [3],82.1%
same,HBsAg loss (%),hepatitis B virus [3],2.5%
same,"HBsAg loss, patients",hepatitis B virus [3],4 of 160
"Nc1ccn([C@@H]2CS[C@H](CO)O2)c(=O)n1 [LAM, Lamivudine]",ALT nomalisatioin,hepatitis B virus [1]; HBeAg(+) patients,41~72%
same,Anti-Hbe-seroconversion,hepatitis B virus [1]; HBeAg(+) patients,16~18%
same,HBV DNA <60~80 IU/ml,hepatitis B virus [1]; HBeAg(+) patients,36~44%
same,HBs Ag loss,hepatitis B virus [1]; HBeAg(+) patients,0~1%
same,ALT nomalisatioin,hepatitis B virus [1]; HBeAg(−) patients,71~79%
same,HBV DNA <60~80 IU/ml,hepatitis B virus [1]; HBeAg(−) patients,72~73%
same,HBs Ag loss,hepatitis B virus [1]; HBeAg(−) patients,0%
"CC(C)OC(=O)[C@H](C)N[P@](=O)(CO[C@H](C)Cn1cnc2c(N)ncnc21)Oc1ccccc1 [TAF, Tenofoviralafenamide fumarate]",ALT nomalisatioin,hepatitis B virus [1]; HBeAg(+) patients,72%
same,Anti-Hbe-seroconversion,hepatitis B virus [1]; HBeAg(+) patients,10%
same,HBV DNA <60~80 IU/ml,hepatitis B virus [1]; HBeAg(+) patients,64%
same,HBs Ag loss,hepatitis B virus [1]; HBeAg(+) patients,1%
same,ALT nomalisatioin,hepatitis B virus [1]; HBeAg(−) patients,83%
same,HBV DNA <60~80 IU/ml,hepatitis B virus [1]; HBeAg(−) patients,94%
same,HBs Ag loss,hepatitis B virus [1]; HBeAg(−) patients,0%
same,HBeAg loss (%),"hepatitis B virus [4]; Total, 1 year (week 48)",(14%)
same,HBeAg loss n/N,"hepatitis B virus [4]; Total, 1 year (week 48)",78/565
same,HBsAg loss n/N,"hepatitis B virus [4]; Total, 1 year (week 48)",4/861
same,HBeAg loss (%),"hepatitis B virus [4]; Total, 2 years (week 96)",(22%)
same,HBeAg loss n/N,"hepatitis B virus [4]; Total, 2 years (week 96)",123/565
same,HBsAg loss (%),"hepatitis B virus [4]; Total, 2 years (week 96)",(<1%)
same,HBsAg loss n/N,"hepatitis B virus [4]; Total, 2 years (week 96)",8/861
same,HBeAg seroconversion (%),"hepatitis B virus [4]; baseline HBeAg(+), 1 year",(10%)
same,HBeAg seroconversion n/N,"hepatitis B virus [4]; baseline HBeAg(+), 1 year",58/565
same,HBsAg seroconversion (%),"hepatitis B virus [4]; baseline HBeAg(+), 1 year",(1%)
same,HBsAg seroconversion n/N,"hepatitis B virus [4]; baseline HBeAg(+), 1 year",3/576
same,HBeAg loss n/N,hepatitis B virus [4]; [8],78/565
same,HBsAg loss n/N,hepatitis B virus [4]; [8],4/576
same,HBeAg seroconversion (%),"hepatitis B virus [4]; baseline HBeAg(+), 2 years",(18%)
same,HBeAg seroconversion n/N,"hepatitis B virus [4]; baseline HBeAg(+), 2 years",99/565
same,HBsAg seroconversion (%),"hepatitis B virus [4]; baseline HBeAg(+), 2 years",(1%)
same,HBsAg seroconversion n/N,"hepatitis B virus [4]; baseline HBeAg(+), 2 years",6/576
same,Average reduction of HBsAg,hepatitis B virus [4]; [9],−0.51 log10IU/ml
same,HBeAg loss n/N,hepatitis B virus [4]; [9],123/565
same,HBsAg loss n/N,hepatitis B virus [4]; [9],7/576
same,HBsAg seroconversion n/N,"hepatitis B virus [4]; baseline HBeAg(−), 1 year",0
same,HBsAg loss n/N,hepatitis B virus [4]; [10],0
same,HBsAg seroconversion (%),"hepatitis B virus [4]; baseline HBeAg(−), 2 years",(<1%)
same,HBsAg seroconversion n/N,"hepatitis B virus [4]; baseline HBeAg(−), 2 years",1/281
same,Average reduction of HBsAg,hepatitis B virus [4]; [11],−0.14 log10IU/ml
same,HBsAg loss (%),hepatitis B virus [4]; [11],(<1%)
same,HBsAg loss n/N,hepatitis B virus [4]; [11],1/281
"Cc1cn([C@@H]2C[C@@H](O)[C@H](CO)O2)c(=O)[nH]c1=O [TBV, Telbivudine]",ALT nomalisatioin,hepatitis B virus [1]; HBeAg(+) patients,77%
same,Anti-Hbe-seroconversion,hepatitis B virus [1]; HBeAg(+) patients,22%
same,HBV DNA <60~80 IU/ml,hepatitis B virus [1]; HBeAg(+) patients,60%
same,HBs Ag loss,hepatitis B virus [1]; HBeAg(+) patients,0.5%
same,ALT nomalisatioin,hepatitis B virus [1]; HBeAg(−) patients,74%
same,HBV DNA <60~80 IU/ml,hepatitis B virus [1]; HBeAg(−) patients,88%
same,HBs Ag loss,hepatitis B virus [1]; HBeAg(−) patients,0%
"CC(C)OC(=O)OCOP(=O)(CO[C@H](C)Cn1cnc2c(N)ncnc21)OCOC(=O)OC(C)C [TDF, Tenofovirdisoproxil fumarate]",ALT nomalisatioin,hepatitis B virus [1]; HBeAg(+) patients,68%
same,Anti-Hbe-seroconversion,hepatitis B virus [1]; HBeAg(+) patients,21%
same,HBV DNA <60~80 IU/ml,hepatitis B virus [1]; HBeAg(+) patients,76%
same,HBs Ag loss,hepatitis B virus [1]; HBeAg(+) patients,3%
same,ALT nomalisatioin,hepatitis B virus [1]; HBeAg(−) patients,76%
same,HBV DNA <60~80 IU/ml,hepatitis B virus [1]; HBeAg(−) patients,93%
same,HBs Ag loss,hepatitis B virus [1]; HBeAg(−) patients,0%
same,HBeAg loss (%),"hepatitis B virus [5]; HBeAg(+), 3-year follow-up",34%
same,HBeAg seroconversion (%),"hepatitis B virus [5]; HBeAg(+), 3-year follow-up",26%
same,HBsAg loss (%) [kaplan-meier],hepatitis B virus [5]; [12],8%
same,HBsAg seroconversion (%) [kaplan-meier],hepatitis B virus [5]; [12],6%
same,"HBsAg seroconversion, n patients",hepatitis B virus [5]; [12],(n = 15)
same,HBeAg loss n/N,"hepatitis B virus [5]; HBeAg(+), 7-year follow-up",84/154
same,HBeAg seroconversion n/N,"hepatitis B virus [5]; HBeAg(+), 7-year follow-up",61/154
same,HBsAg loss (%) [kaplan-meier],"hepatitis B virus [5]; HBeAg(+), 7-year follow-up",11.8%
same,"HBsAg loss, n patients","hepatitis B virus [5]; HBeAg(+), 7-year follow-up",(n = 27)
same,HBsAg seroconversion (%) [kaplan-meier],"hepatitis B virus [5]; HBeAg(+), 7-year follow-up",9.7%
same,"HBsAg seroconversion, n patients","hepatitis B virus [5]; HBeAg(+), 7-year follow-up",(n = 21)
same,HBeAg loss n/N,"hepatitis B virus [5]; HBeAg(+), 10-year follow-up",12/23
same,HBeAg seroconversion n/N,"hepatitis B virus [5]; HBeAg(+), 10-year follow-up",6/22
same,HBsAg loss n/N,"hepatitis B virus [5]; HBeAg(+), 10-year follow-up, (non-Asian)",4/81
same,HBeAg seroconversion n/N,"hepatitis B virus [5]; HBeAg(+), phase 3, 1 year",32/153
same,HBsAg loss n/N,hepatitis B virus [5]; [13],5/158
same,HBsAg seroconversion n/N,hepatitis B virus [5]; [13],2/158
same,HBsAg loss n/N,"hepatitis B virus [5]; HBeAg(−), 3-year follow-up",0
same,HBsAg seroconversion n/N,"hepatitis B virus [5]; HBeAg(−), 3-year follow-up",0
same,HBsAg seroconversion n/N,"hepatitis B virus [5]; HBeAg(−), 7-year follow-up",0
same,HBsAg loss n/N,"hepatitis B virus [5]; HBeAg(−), 10-year follow-up, (non-Asian)",4/117
same,HBsAg loss n/N,"hepatitis B virus [5]; HBeAg(−), phase 3, 1 year",0
same,HBsAg seroconversion n/N,"hepatitis B virus [5]; HBeAg(−), phase 3, 1 year",0
same,HBsAg loss (%),hepatitis B virus [5]; [14],4.0%
same,HBsAg loss n/N,hepatitis B virus [5]; [14],8/198
same,"HBsAg loss, number of patients","hepatitis B virus [5]; all patients, over 7 years",28
same,change of HBsAg levels,"hepatitis B virus [5]; patients first receiving oral antiviral agent, after 2 years (96 weeks), FIG. 1",no significant change
same,HBeAg loss (%),"hepatitis B virus [4]; Total, 1 year (week 48)",(12%)
same,HBeAg loss n/N,"hepatitis B virus [4]; Total, 1 year (week 48)",34/285
same,HBsAg loss (%),"hepatitis B virus [4]; Total, 1 year (week 48)",(<1%)
same,HBsAg loss n/N,"hepatitis B virus [4]; Total, 1 year (week 48)",1 out of 428 and 1/428
same,HBeAg loss (%),"hepatitis B virus [4]; Total, 2 years (week 96)",(18%)
same,HBeAg loss n/N,"hepatitis B virus [4]; Total, 2 years (week 96)",51/285
same,HBsAg loss (%),"hepatitis B virus [4]; Total, 2 years (week 96)",(<1%)
same,HBsAg loss n/N,"hepatitis B virus [4]; Total, 2 years (week 96)",4/428
same,HBeAg seroconversion (%),"hepatitis B virus [4]; baseline HBeAg(+), 1 year",(8%)
same,HBeAg seroconversion n/N,"hepatitis B virus [4]; baseline HBeAg(+), 1 year",23/285
same,HBsAg seroconversion n/N,"hepatitis B virus [4]; baseline HBeAg(+), 1 year",0
same,HBeAg loss n/N,hepatitis B virus [4]; [8],34/285
same,HBsAg loss n/N,hepatitis B virus [4]; [8],1/288
same,HBeAg seroconversion (%),"hepatitis B virus [4]; baseline HBeAg(+), 2 years",(12%)
same,HBeAg seroconversion n/N,"hepatitis B virus [4]; baseline HBeAg(+), 2 years",35/285
same,HBsAg seroconversion n/N,"hepatitis B virus [4]; baseline HBeAg(+), 2 years",0
same,Average reduction of HBsAg,hepatitis B virus [4]; [9],−0.64 log10IU/ml
same,HBeAg loss n/N,hepatitis B virus [4]; [9],51/285
same,HBsAg loss n/N,hepatitis B virus [4]; [9],4/288
same,HBsAg seroconversion n/N,"hepatitis B virus [4]; baseline HBeAg(−), 1 year",0
same,HBsAg loss n/N,hepatitis B virus [4]; [10],0
same,HBsAg seroconversion n/N,"hepatitis B virus [4]; baseline HBeAg(−), 2 years",0
same,Average reduction of HBsAg,hepatitis B virus [4]; [11],−0.10 log10IU/ml
same,HBsAg loss n/N,hepatitis B virus [4]; [11],0
Pam3Cys-Ser-Ser,virus-specific cytotoxic T lymphocytes (CTLs),[6],induced
